Assay results from patent US20230091047A1 (priority 2019, published 2023).

How the values were obtained:
[1] = system: HBV (HepG2.117 cell line, inducibly HBV producing); assay: Anti-HBV activity: intracellular HBV DNA by real-time PCR in HepG2.117 cells after 3 days of treatment; assay type: cell-based, hepatitis B virus; settings: Hepatitis B virus, HepG2.117, 72 h, HepG2.117 cells, intracellular HBV DNA by real-time PCR, 3 days of treatment, mean value; read-out: EC50 (μM, mean value)
How it was run: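 First, HBV replication is induced in HepG2.117 cells by doxycycline absence. Next, serially diluted compound is added for 3 days. Finally, intracellular HBV DNA is quantified by HBV-specific real-time PCR.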

in vitro = assay type: cell-based; settings: human, HepG2 or HepG2.117 cells, ATPlite, 3-days incubation (not marked with *), mean value
How it was run: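 Luminescent ATP quantitation served as the viability endpoint following a 3- or 4-day incubation with test compounds.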

| SMILES | EC50 [1] | CC50 at 3 days (in vitro) |
| --- | --- | --- |
| CNC(=O)c1ccc(-n2c(N[C@H](C)c3ccc(OC)c(F)c3)nc3c(c2=O)C[C@@H](C)N(C(=O)c2ccc(Cl)c(Cl)c2)C3)cc1 (single isomer, unassigned) [Compound C416a] | 0.96 µM | > 50 µM |
| CNC(=O)c1ccc(-n2c(N[C@@H](C)c3ccc(OC)c(F)c3)nc3c(c2=O)C[C@@H](C)N(C(=O)c2ccc(Cl)c(Cl)c2)C3)cc1 (single isomer, unassigned) [Compound C416b] | 0.06 µM | 34.5 µM |
| CNC(=O)c1ccc(-n2c(N[C@H](C)c3ccc(F)c(F)c3)nc3c(c2=O)C[C@@H](C)N(C(=O)c2ccc(Cl)c(Cl)c2)C3)cc1 (single isomer, unassigned) [Compound C417a] | 1.22 µM | 41.8 µM |
| CNC(=O)c1ccc(-n2c(N[C@@H](C)c3ccc(F)c(F)c3)nc3c(c2=O)C[C@@H](C)N(C(=O)c2ccc(Cl)c(Cl)c2)C3)cc1 (single isomer, unassigned) [Compound C417b] | 0.06 µM | 7.3 µM |
| CNC(=O)c1ccc(-n2c(N[C@@H](c3ccc(OC)cc3)C(C)C)nc3c(c2=O)C[C@@H](C)N(C(=O)c2ccc(Cl)c(Cl)c2)C3)cc1 (single isomer, unassigned) [Compound C422a] | 7.77 µM | 10.5 µM |
| CNC(=O)c1ccc(-n2c(N[C@H](c3ccc(OC)cc3)C(C)C)nc3c(c2=O)C[C@@H](C)N(C(=O)c2ccc(Cl)c(Cl)c2)C3)cc1 (single isomer, unassigned) [Compound C422b] | 0.28 µM | 17.2 µM |
| CNC(=O)c1ccc(-n2c(N[C@H](C)c3cc(C)no3)nc3c(c2=O)C[C@@H](C)N(C(=O)c2ccc(Cl)c(Cl)c2)C3)cc1 (single isomer, unassigned) [Compound C433a] | 1.89 µM | > 50 µM |
| CNC(=O)c1ccc(-n2c(N[C@@H](C)c3cc(C)no3)nc3c(c2=O)C[C@@H](C)N(C(=O)c2ccc(Cl)c(Cl)c2)C3)cc1 (single isomer, unassigned) [Compound C433b] | 0.73 µM | > 50 µM |
| CNC(=O)c1ccc(-n2c(N[C@H](C)c3nccs3)nc3c(c2=O)C[C@@H](C)N(C(=O)c2ccc(Cl)c(Cl)c2)C3)cc1 (single isomer, unassigned) [Compound C434a] | 0.99 µM | > 50 µM |
| CNC(=O)c1ccc(-n2c(N[C@@H](C)c3nccs3)nc3c(c2=O)C[C@@H](C)N(C(=O)c2ccc(Cl)c(Cl)c2)C3)cc1 (single isomer, unassigned) [Compound C434b] | 0.84 µM | > 50 µM |
| CNC(=O)c1ccc(-n2c(N[C@H](C)c3ccc(F)c(OC)c3)nc3c(c2=O)C[C@@H](C)N(C(=O)c2ccc(Cl)c(Cl)c2)C3)cc1 (single isomer, unassigned) [Compound C435a] | 0.1 µM | 26.4 µM |
| CNC(=O)c1ccc(-n2c(N[C@@H](C)c3ccc(F)c(OC)c3)nc3c(c2=O)C[C@@H](C)N(C(=O)c2ccc(Cl)c(Cl)c2)C3)cc1 (single isomer, unassigned) [Compound C435b] | 1.29 µM | 45.8 µM |
| CNC(=O)c1ccc(-n2c(NC[C@H](C)c3cccc(OC)c3)nc3c(c2=O)C[C@@H](C)N(C(=O)c2ccc(Cl)c(Cl)c2)C3)cc1 (single isomer, unassigned) [Compound C436a] | 0.99 µM | 22.3 µM |
| CNC(=O)c1ccc(-n2c(NC[C@@H](C)c3cccc(OC)c3)nc3c(c2=O)C[C@@H](C)N(C(=O)c2ccc(Cl)c(Cl)c2)C3)cc1 (single isomer, unassigned) [Compound C436b] | 0.36 µM | 22.3 µM |
| CNC(=O)c1ccc(-n2c(N[C@H](CC3CC3)c3ccccc3)nc3c(c2=O)C[C@@H](C)N(C(=O)c2ccc(Cl)c(Cl)c2)C3)cc1 (single isomer, unassigned) [Compound C437a] | 0.16 µM | 24.6 µM |
| CNC(=O)c1ccc(-n2c(N[C@@H](CC3CC3)c3ccccc3)nc3c(c2=O)C[C@@H](C)N(C(=O)c2ccc(Cl)c(Cl)c2)C3)cc1 (single isomer, unassigned) [Compound C437b] | 0.91 µM | 29.4 µM |
| CNC(=O)c1ccc(-n2c(N[C@H](C)c3ccccc3OC(F)F)nc3c(c2=O)C[C@@H](C)N(C(=O)c2ccc(Cl)c(Cl)c2)C3)cc1 (single isomer, unassigned) [Compound C438a] | 0.73 µM | 29.2 µM |
| CNC(=O)c1ccc(-n2c(N[C@@H](C)c3ccccc3OC(F)F)nc3c(c2=O)C[C@@H](C)N(C(=O)c2ccc(Cl)c(Cl)c2)C3)cc1 (single isomer, unassigned) [Compound C438b] | 0.15 µM | 29.9 µM |
| CNC(=O)c1ccc(-n2c(N[C@H](C)c3nc[nH]n3)nc3c(c2=O)C[C@@H](C)N(C(=O)c2ccc(Cl)c(Cl)c2)C3)cc1 (single isomer, unassigned) [Compound C439a] | > 10 µM | > 50 µM |

| SMILES | EC50 [1] | CC50 at 3 days (in vitro) |
| --- | --- | --- |
| CNC(=O)c1ccc(-n2c(N[C@@H](C)c3nc[nH]n3)nc3c(c2=O)C[C@@H](C)N(C(=O)c2ccc(Cl)c(Cl)c2)C3)cc1 (single isomer, unassigned) [Compound C439b] | > 10 µM | > 50 µM |
| CNC(=O)c1ccc(-n2c(N[C@H](C)c3ccc(OC(F)(F)F)cc3)nc3c(c2=O)C[C@@H](C)N(C(=O)c2ccc(Cl)c(Cl)c2)C3)cc1 (single isomer, unassigned) [Compound C440a] | 5.42 µM | 25 µM |
| CNC(=O)c1ccc(-n2c(N[C@@H](C)c3ccc(OC(F)(F)F)cc3)nc3c(c2=O)C[C@@H](C)N(C(=O)c2ccc(Cl)c(Cl)c2)C3)cc1 (single isomer, unassigned) [Compound C440b] | 0.07 µM | 6.3 µM |
| CNC(=O)c1ccc(-n2c(N[C@H](C)c3ccc(C#N)cc3)nc3c(c2=O)C[C@@H](C)N(C(=O)c2ccc(Cl)c(Cl)c2)C3)cc1 (single isomer, unassigned) [Compound C441a] | 0.22 µM | > 50 µM |
| CNC(=O)c1ccc(-n2c(N[C@@H](C)c3ccc(C#N)cc3)nc3c(c2=O)C[C@@H](C)N(C(=O)c2ccc(Cl)c(Cl)c2)C3)cc1 (single isomer, unassigned) [Compound C441b] | 2.75 µM | > 50 µM |
| CNC(=O)c1ccc(-n2c(N[C@H](C)c3ccc4[nH]ccc4c3)nc3c(c2=O)C[C@@H](C)N(C(=O)c2ccc(Cl)c(Cl)c2)C3)cc1 (single isomer, unassigned) [Compound C449a] | 0.04 µM | > 50 µM |
| CNC(=O)c1ccc(-n2c(N[C@@H](C)c3ccc4[nH]ccc4c3)nc3c(c2=O)C[C@@H](C)N(C(=O)c2ccc(Cl)c(Cl)c2)C3)cc1 (single isomer, unassigned) [Compound C449b] | 0.2 µM | 46.4 µM |
| CNC(=O)c1ccc(-n2c(N[C@H](C)c3ccc4c(ccn4C)c3)nc3c(c2=O)C[C@@H](C)N(C(=O)c2ccc(Cl)c(Cl)c2)C3)cc1 (single isomer, unassigned) [Compound C450a] | 0.02 µM | > 50 µM |
| CNC(=O)c1ccc(-n2c(N[C@@H](C)c3ccc4c(ccn4C)c3)nc3c(c2=O)C[C@@H](C)N(C(=O)c2ccc(Cl)c(Cl)c2)C3)cc1 (single isomer, unassigned) [Compound C450b] | 0.18 µM | > 50 µM |
| CNC(=O)c1ccc(-n2c(N[C@@H]3C[C@H]3c3ccc(OC)cc3)nc3c(c2=O)C[C@@H](C)N(C(=O)c2ccc(Cl)c(Cl)c2)C3)cc1 (single isomer, unassigned) [Compound C452a] | 1.44 µM | > 25 µM |
| CNC(=O)c1ccc(-n2c(N[C@H](C)C(C)(C)C)nc3c(c2=O)C[C@@H](C)N(C(=O)c2ccc(Cl)c(Cl)c2)C3)cc1 (single isomer, unassigned) [Compound C459a] | 0.44 µM | 31.9 µM |
| CNC(=O)c1ccc(-n2c(N[C@@H](C)C(C)(C)C)nc3c(c2=O)C[C@@H](C)N(C(=O)c2ccc(Cl)c(Cl)c2)C3)cc1 (single isomer, unassigned) [Compound C459b] | 0.63 µM | 32.5 µM |
| CC(=O)Nc1ccc(-n2c(N[C@H](C)c3ccc4[nH]ncc4c3)nc3c(c2=O)C[C@@H](C)N(C(=O)c2ccc(Cl)c(Cl)c2)C3)cc1 (single isomer, unassigned) [Compound C462a] | 1.24 µM | > 50 µM |
| CC(=O)Nc1ccc(-n2c(N[C@@H](C)c3ccc4[nH]ncc4c3)nc3c(c2=O)C[C@@H](C)N(C(=O)c2ccc(Cl)c(Cl)c2)C3)cc1 (single isomer, unassigned) [Compound C462b] | 0.37 µM | > 50 µM |
| C[C@@H]1Cc2c(nc(N[C@H](C)c3ccc(OC(F)(F)F)cc3)n(-c3ccc(-n4cccn4)cc3)c2=O)CN1C(=O)c1ccc(Cl)c(Cl)c1 (single isomer, unassigned) [Compound C463a] | 0.24 µM | > 50 µM |
| C[C@H](Nc1nc2c(c(=O)n1-c1ccc(-n3cccn3)cc1)C[C@@H](C)N(C(=O)c1ccc(Cl)c(Cl)c1)C2)c1ccc(OC(F)(F)F)cc1 (single isomer, unassigned) [Compound C463b] | 7.21 µM | > 50 µM |
| CNC(=O)c1ccc(-n2c(N[C@@H]3CCOc4ccccc43)nc3c(c2=O)C[C@@H](C)N(C(=O)c2ccc(Cl)c(Cl)c2)C3)cc1 (single isomer, unassigned) [Compound C526a] | 0.28 µM | > 50 µM |
| CNC(=O)c1ccc(-n2c(N[C@H]3CCOc4ccccc43)nc3c(c2=O)C[C@@H](C)N(C(=O)c2ccc(Cl)c(Cl)c2)C3)cc1 (single isomer, unassigned) [Compound C526b] | 5.42 µM | 16.3 µM |
